Data as given in US20240302387A1, “HIGHLY FLUORINATED COMPOUNDS FOR 19F MRI-BASED THERMOMETRY” (Regents of the University of Minnesota, priority 2023, published 2024).
Entries after “also recorded” stand apart in the source; their conditions may differ. Like-named read-outs stand apart in the source and are kept apart here.

How the values were obtained:
Format in all cases: physicochemical
[1] = 19F NMR aqueous solubility limit measurement; settings: for solubility: pH 6.9, aqueous with cosolvent or surfactant or cyclodextrin, kinetic from dmso stock
Procedure: ^19F NMR Aqueous Solubility Limit Measurements: Compound was dissolved in DMSO and then added to 10 mM pH=6.9 phosphate buffer/D2O (9:1 v/v) to make 5% DMSO stock in 500 μL phosphate buffer/D2O at concentration of 10/50/100/150/200/250 μM. Samples were measured with Bruker AVANCE III 500@ equipped with a 5 mm BBFO SmartProbe®. ^19F spectra were obtained at 471 MHz with dummy scans=4, acquisition time=0.57 s, delay time =1 s, […], and the number of scans=800 UV-Visible Spectra: Stock solutions of DD-1, DD-3, and DD-5 were prepared at 10 mM in DMSO and stored in the dark. A 10 mM phosphate buffer at pH=7 was prepared and stock solutions were diluted to 50 μM. UV-visible absorption spectra were obtained using a Horiba Aqualog®.

[2] = Phase at room temperature
Procedure: All seven organofluorine temperature sensors of Table 1a were synthesized under the optimized reaction conditions for enabling facile synthesis in the following General Scheme and Examples. Specifically, temperature sensors DD1-DD7 were prepared through an SNAr reaction. Compounds DD-2 and DD-4 required one extra oxidation of DD-1 and DD-3 to provide the respective sulfones. Yields of the SNAr reactions using thiol, HS—(CF2)7—CF3, were low […], while the yields with HS—CH2CH2CH2CF2CF3 fell in the range of […].

[3] = Quantitative 19F NMR fluorine mass balance after ozonation
Procedure: (§1) Quantitative ^19F NMR was conducted to determine if any of the fluorinated functional groups were susceptible to degradation. The environmental persistence and potential impact of these fluorinated temperature sensors will be a function of not only the persistence of the parent compound, but also that of any fluorinated reaction products. Photolysis and ozonation represent natural and engineered processes, respectively, that could degrade these compounds after their use and introduction into the water system.
(§2) ^19F NMR spectra were taken to quantify and partition degradation products from the parent compound signals for photolysis and ozonation (FIG. 7). […] The solutions analyzed contained 50 μM of DD-1 with 14 fluorine atoms, thus a total fluorine concentration of 700 μM, with 200 μM attributed to the aromatic fluorines (Ar—F; −137.04 ppm), 200 μM attributed to the CF2 (−121.34 ppm), and 300 μM attributed to the CF3 (−89.14 ppm) as shown in FIG. 7. […] Top: regional spectrum of untreated DD-1. Middle: regional spectrum of DD-1 degraded by solar simulator. Bottom: regional spectrum of DD-1 degraded by ozone. (left) Spectra of CF3 region. (middle) Spectra of CF2 region. (right) Spectra of Ar—F region. For photolysis and ozonation, 61% and 87% the parent Ar—F signal was lost respectively. A peak at ˜139.1 ppm appeared following ozonation and is hypothesized to be a hydroxylated aromatic ring product, which is a known reaction process for aromatics during ozonation (Vialaton, D., et al (1998) J Photochem Photobiol A Chem 119 (1):39-45). For the parent CF2, the signal decreased by 45% and 79%, but new CF2 products appeared upfield. Under both degradative conditions, new peaks appear in the near regions of the CF2, likely due to ring opening processes. […] For the parent CF3, the signal decreased by 38% and 69%, again with new CF3 products appearing upfield. An excess of 39 μM and 48 μM fluorine for the solar simulator and ozonation, respectively, was found within the CF3 region. These groups are hypothesized to be products produced by opening of the aromatic ring, which could be vinyl fluorines with oxygen and/or sulfur substituents.
Ozone-mediated Degradation: The 10 mM DMSO stock solution of DD-1 was used to make 100 mL of a 50 μM solution in the 10 mM pH=7 phosphate buffer. The solution was placed in an Erlenmeyer flask in an ice bath. Ozone (O3) was produced using ultra-high pure oxygen gas (99.99%) with a Pacific Ozone O3 generator and bubbled directly into the sample solution. O3 concentration was previously measured using UV-Vis spectroscopy (Beckman Coulter DU 530). The concentration of O3 (with an ε=3000 M^−1 cm^−1) was determined by direct absorbance at 258 nm. By using a 3:1 dilution, the absorbance obtained is equivalent to the O3 concentration in mM. After 30 minutes the O3 concentration in ultrapure water was 0.61 mM or 29.16 mg/L. Samples were taken over time for 300 minutes and parent compound degradation was monitored via HPLC.

[4] = Direct photolysis kinetics and quantum yield, solar simulator; settings: for quantum yield of direct photolysis: 10 mM pH 7 phosphate buffer
[5] = Quantitative 19F NMR fluorine mass balance after photolysis (solar simulator)
Procedure: as §1, §2
Photolysis Experiments: Stock solutions were diluted to 10 μM in the phosphate buffer for kinetic experiments and 50 μM for ^19F NMR experiments. Solutions were placed in 10 mL quartz tubes sealed with cork stoppers with no contact to the solution. The solutions were photolyzed in (i) an Atlas Suntest CPS+® solar simulator with a 1500 W xenon lamp at an intensity of 765 W m-2 using a wavelength range of 290-800 nm at a 30° angle, and (ii) a 450 W medium pressure polychromatic mercury vapor lamp with a quartz immersion well with cooling water circulation, a Pyrex 280 nm cutoff filter (Ace Glass), and a merry-go-round sample holder. Samples were photolyzed until ˜60 to 80% degradation of the parent compound was achieved. For each compound an equivalent tube was prepared and wrapped in aluminum foil as a dark control. Experiments were performed in triplicate

[6] = Direct photolysis kinetics, mercury vapor lamp

Structure (SMILES): FC(F)(F)C(F)(F)C(F)(F)C(F)(F)N(C(F)(F)C(F)(F)C(F)(F)C(F)(F)F)C(F)(F)C(F)(F)C(F)(F)C(F)(F)F [CC-1, perfluorotributylamine, reference compound]
- water solubility (in words) [1]: limited water solubility
- Phase [2]: liquid
- Phase ([2]; listed as CC-1 PFTBA): solid at room temperature

Structure (SMILES): Fc1c(F)c(-c2c(F)c(F)c(SCCC(F)(F)C(F)(F)C(F)(F)C(F)(F)C(F)(F)C(F)(F)C(F)(F)C(F)(F)F)c(F)c2F)c(F)c(F)c1SCCC(F)(F)C(F)(F)C(F)(F)C(F)(F)C(F)(F)C(F)(F)C(F)(F)C(F)(F)F [CC-2, (perfluoro-[1,1′-biphenyl]-4,4′-diyl)bis((3,3,4,4,5,5,6,6,7,7,8,8,9,9,10,10,10-heptadecafluorodecyl)sulfane), reference compound]
- Phase [2]: solid

Structure (SMILES): Fc1c(F)c(SCCC(F)(F)C(F)(F)C(F)(F)C(F)(F)C(F)(F)C(F)(F)C(F)(F)C(F)(F)F)c(F)c(F)c1SCCC(F)(F)C(F)(F)C(F)(F)C(F)(F)C(F)(F)C(F)(F)C(F)(F)C(F)(F)F [CC-3, (perfluoro-1,4-phenylene)bis((3,3,4,4,5,5,6,6,7,7,8,8,9,9,10,1 0,10-heptadecafluorodecyl)sulfane), reference compound]
- Phase [2]: solid

Structure (SMILES): Fc1c(F)c(SCCCC(F)(F)C(F)(F)F)c(F)c(F)c1SCCCC(F)(F)C(F)(F)F [DD-1, (perfluoro-1,4-phenylene)bis((4,4,5,5,5-pentafluoropentyl)sulfane)]
- solubility [1]: ≤ 200 µM
- sum of fluorine concentrations for Ar—F, F− and ring opening products/vinyl F ([3]; O3, initial Ar—F 200 μM): 200 µM
- Fluoride (F−) production ([3]; ozonation, 50 μM): 117 µM
- excess fluorine found within the CF3 region ([3]; ozonation, 50 μM): 48 µM
- parent Ar—F 19F NMR signal lost ([3]; ozonation, 50 μM): 87%
- parent CF2 signal decrease ([3]; ozonation, 50 μM): 79%
- parent CF3 signal decrease ([3]; ozonation, 50 μM): 69%
- quantum yield of direct photolysis [4]: 0.0272 mol Ei^−1
- Phase [2]: liquid phase at room temperature
- Fluoride (F−) production ([5]; photolysis, 50 μM): 79 µM
- parent Ar—F 19F NMR signal lost ([5]; photolysis, 50 μM): 61%
- parent CF2 signal decrease ([5]; photolysis, 50 μM): 45%
- parent CF3 signal decrease ([5]; photolysis, 50 μM): 38%
- sum of fluorine concentrations for Ar—F, F− and ring opening products/vinyl F ([5]; photolysis, initial Ar—F 200 μM): 198 µM
- excess fluorine found within the CF3 region ([5]; solar simulator, 50 μM): 39 µM

Structure (SMILES): O=S(=O)(CCCC(F)(F)C(F)(F)F)c1c(F)c(F)c(S(=O)(=O)CCCC(F)(F)C(F)(F)F)c(F)c1F [DD-2, 1,2,4,5-tetrafluoro-3,6-bis((4,4,5,5,5-pentafluoropentyl)sulfonyl) benzene]
- Phase [2]: white solids; also recorded: solid

Structure (SMILES): Fc1c(F)c(-c2c(F)c(F)c(SCCCC(F)(F)C(F)(F)F)c(F)c2F)c(F)c(F)c1SCCCC(F)(F)C(F)(F)F [DD-3, (perfluoro-[1,1′-biphenyl]-4,4′-diyl)bis((4,4,5,5,5-pentafluoropentyl)sulfane)]
- solubility [1]: ≤ 200 µM
- quantum yield of direct photolysis [4]: 0.0267 mol Ei^−1
- Phase [2]: liquid phase at room temperature

Structure (SMILES): O=S(=O)(CCCC(F)(F)C(F)(F)F)c1c(F)c(F)c(-c2c(F)c(F)c(S(=O)(=O)CCCC(F)(F)C(F)(F)F)c(F)c2F)c(F)c1F [DD-4, 2,2′,3,3′,5,5′,6,6′-octafluoro-4,4′-bis((4,4,5,5,5-pentafluoropentyl)sulfonyl)-1,1′-biphenyl]
- Phase [2]: solid

Structure (SMILES): Fc1c(F)c(Sc2c(F)c(F)c(SCCCC(F)(F)C(F)(F)F)c(F)c2F)c(F)c(F)c1SCCCC(F)(F)C(F)(F)F [DD-5, bis(2,3,5,6-tetrafluoro-4-((4,4,5,5,5-pentafluoropentyl)thio)phenyl)sulfane]
- rank of photolysis rate constant [4]: fastest
- quantum yield of direct photolysis [4]: 0.0520 mol Ei^−1
- Phase [2]: solid
- rank of photolysis rate constant [6]: fastest

Structure (SMILES): O=S(=O)(c1c(F)c(F)c(SCCCC(F)(F)C(F)(F)F)c(F)c1F)c1c(F)c(F)c(SCCCC(F)(F)C(F)(F)F)c(F)c1F [DD-6, (sulfonylbis(2,3,5,6-tetrafluoro-4,1-phenylene))bis((4,4,5,5,5-pentafluoropentyl)sulfane)]
- Phase [2]: solid
